# Test results published in paper PMC11802874, “The hypolipidemic effect of MI-883, the combined CAR agonist/ PXR antagonist, in diet-induced hypercholesterolemia model” (Nature Communications, 2025).
# Several values for one entry are separate records, joined by “and”; a condition that tells them apart may be missing. Identical values can stand only once.
# Tests used:
# [1] = biological target: PPARγ (Homo sapiens, UniProt P37231); test: Luciferase reporter gene assay PPARγ, HepG2
# From the text: (§1) The luciferase reporter gene assays for FXR, LXRα, LXRβ, THα, GRα, PPARα, PPARδ/β, PPARγ, AhR, VD, ERα, ERβ and mouse Car are described in our recent paper[19]
# (§2) Gal4-LBD constructs of tested nuclear receptors have been used together with pGL4.31[luc2P/GAL4UAS/Hygro] luciferase reporter construct and pRL-TK Renilla expression vector (both from Promega, Hercules, USA) in HepG2 cells transfected with Lipofectamine 2000 or 3000 reagents. For GRα and FXR receptors, full-length expression vectors have been used with pGRE-luc or pFXRE-luc luciferase constructs. For the aryl hydrocarbon receptor (AhR), p1A1-luc construct was used with only pRL-TK vector for transfection normalization. A dual reporter assay (Promega, Hercules, USA) was used to analyze both firefly and Renilla luciferase activities.
# (§3) Gal4-LBD constructs of tested nuclear receptors have been used together with pGL5-luc luciferase reporter construct and pRL-TK Renilla expression vector in HepG2 cells transfected with Lipofectamine 2000 or 3000 reagents. For GRα and FXR receptors, full-length expression vectors have been used with pGRE-luc or pFXRE-luc luciferase constructs. For the aryl hydrocarbon receptor (AhR), p1A1-luc construct was used with only pRL-TK vector for transfection normalization. […] Bars represent means±S.D. (n=3).
# [2] = biological target: PPARα (Homo sapiens, UniProt Q07869); test: Luciferase reporter gene assay PPARα, HepG2
# PPARα, sequence (Q07869 239-466 limits assumed): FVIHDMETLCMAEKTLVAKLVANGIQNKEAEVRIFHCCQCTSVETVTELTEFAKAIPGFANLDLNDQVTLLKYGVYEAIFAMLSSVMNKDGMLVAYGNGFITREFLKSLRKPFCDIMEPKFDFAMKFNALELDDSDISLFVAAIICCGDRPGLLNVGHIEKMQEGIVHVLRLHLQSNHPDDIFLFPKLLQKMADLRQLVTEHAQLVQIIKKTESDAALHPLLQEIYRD
# From the text: as §1, §2, §3
# [3] = tested on: humanized PXR-CAR-CYP3A4/3A7 mice; test: Bile acid analysis in plasma, liver and stool (HFD study); assay type: in vivo, mouse
# Method: Materials and reagents and sample preparation have been described in our last paper[63] (see Supplementary, Chapter 12). Concentrations of bile acids in plasma, bile, and feces were determined using the UHPLC-MS method. The bile acids separation was conducted on the ACQUITY UPLC I-Class System (Waters, Milford, MA, USA) using a Triart C18 column (50 mm × 2.1 mm ID, 1.9 µm) from YMC, Japan. The column was maintained at 45 °C and was safeguarded by a disposable CrudCatcher in-line filter (Phenomenex, Torrance, CA, USA). The mobile phase flowed at a rate of 0.35 mL/min and consisted of solvent A (0.5 mmol/L ammonium acetate, 0.001% v/v acetic acid in water) and solvent B (0.5 mmol/L ammonium acetate, 0.001% v/v acetic acid in a 3:1 v/v mixture of methanol and acetonitrile). The gradient program followed this sequence. […] This was succeeded by an isocratic washout with 95% (v/v) solvent B from 9.0 to 10.5 min, followed by equilibration with 40% (v/v) solvent B from 10.5 to 12 min. 2 μL of sample were injected into column. Column effluent was monitored with Xevo TQ-XS triple quadrupole detector operated in positive electrospray mode. Further details can be found in the publication by Uher et al.[72].
# The processing of the UHPLC-MS data was performed using TargetLynx software (Waters, Milford, MA, USA). The ratio of an analyte’s peak area and the internal standard was evaluated against a calibration curve, and the concentration for each bile acid was calculated. For further data analysis, the concentrations of individual BAs were summed to calculate the concentration of conjugated, unconjugated, 12-OH, non-12-OH, and total bile acids.
# To cover a wide concentration range of bile acids, two sets of plasma aliquots were prepared. The first set, with a volume of 10 μL, was diluted tenfold with MilliQ water. The second set, with a volume of 100 μL, was used without dilution, and the subsequent procedure remained identical for both sets. […]
# [4] = tested on: humanized PXR-CAR-CYP3A4/3A7 mice; test: Glucose homeostasis: IPGTT, IPITT, glycemia, insulin (HFD study); assay type: in vivo, mouse; design: insulinemia: unit not given here
# Method: Intraperitoneal glucose tolerance test (IPGTT) and Intraperitoneal Insulin Tolerance Test (IPITT) assays were performed one week before the end of the HFD study. For IPGTT, mice fasted for 18 h were intraperitoneally injected with 20% D-glucose solution (2 g/kg BW). Blood was sampled before the injection and 15, 30, 60, and 120 min after. For the IPITT assay, mice fasted for 4 h were administered with 0.75 IU insulin/kg BW. Blood was sampled before the injection and 15, 30, 45, 60, and 90 min after.
# [5] = tested on: PXR-responsive CYP3A4(pER6)-luc construct; test: CYP3A4(pER6)-luc luciferase reporter assay in HepG2 cells
# [6] = biological target: LXRβ (Homo sapiens, UniProt P55055); test: Luciferase reporter gene assay LXRβ, HepG2
# LXRβ, sequence (P55055 222-460 limits assumed): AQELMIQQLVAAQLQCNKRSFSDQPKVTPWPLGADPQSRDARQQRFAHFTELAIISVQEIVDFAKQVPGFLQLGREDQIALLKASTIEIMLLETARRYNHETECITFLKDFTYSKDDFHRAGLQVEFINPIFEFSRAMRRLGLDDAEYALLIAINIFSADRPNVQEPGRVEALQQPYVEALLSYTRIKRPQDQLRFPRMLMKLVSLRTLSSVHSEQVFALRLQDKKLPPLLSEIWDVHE
# From the text: as §2, §3
# [7] = tested on: humanized PXR-CAR-CYP3A4/3A7 mice, liver; test: Liver enzymatic TG measurement (HFD study); assay type: in vivo, mouse
# Method: The liver tissue (10 mg) was homogenized using a pre-cooled steel bead in 225 μL of methanol in TissueLyser II (30 Hz, 2 × 30 s) (Qiagen, Hilden, Germany). This was followed by the addition of 750 μL of ice-cold methyl tert-butyl ether. Samples were vortexed and incubated for 1 h on a rotating wheel. Next, 188 μL of LC/MS-grade water was added and, after vortexing, the mixture underwent a short incubation and centrifugation (14,000 × g, 4 °C, 3 min). The upper organic phase containing lipids was collected and 300 μL was transferred to a vial containing 40 μL of 10% Triton X-100 in methanol, followed by evaporation on a heating block with shaking function (300 rpm, 45 °C). LC/MS-grade water (100 μL) was added to the evaporated sample and the tube was vortexed (1000 rpm, 35 °C). The samples were measured using a TG assay (Beckman Coulter, Brea, CA, USA) and a glycerol assay (Randox laboratories, Crumlin, UK) on an AU480 biochemistry analyzer (Beckman Coulter, Brea, CA, USA). The glycerol value was subtracted from the TG value. Livers from seven (n = 7) vehicle-treated controls and ten (n = 10) MI-883-treated animals were used.
# PPARγ, sequence (P37231 238-503 limits assumed): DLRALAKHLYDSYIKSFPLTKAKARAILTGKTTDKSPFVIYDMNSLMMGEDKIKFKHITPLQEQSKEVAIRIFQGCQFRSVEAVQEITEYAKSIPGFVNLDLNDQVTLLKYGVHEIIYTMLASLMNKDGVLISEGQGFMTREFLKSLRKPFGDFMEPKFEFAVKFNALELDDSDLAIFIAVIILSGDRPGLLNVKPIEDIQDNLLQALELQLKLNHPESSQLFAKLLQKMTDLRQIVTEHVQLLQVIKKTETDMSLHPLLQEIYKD
structure (smiles),measurement,setting,value
"NC(=O)c1cc(Cn2cc(-c3c(-c4ccc(Cl)cc4)nc4cc(F)ccn34)nn2)ccc1Cl [MI-883, 2-chloro-5-((4-(2-(4-chlorophenyl)-7-fluoroimidazo[1,2-a]pyridin-3-yl)-1H-1,2,3-triazol-1-yl)methyl)benzamide]","NRs assays: PPARy (relative to ctrl, replicates)",[1],0.61 and 0.89 and 1.05
same,"NRs assays: PPARa (relative to ctrl, replicates)",[2],0.75 and 0.92 and 1.14
same,total BA content in the stool after 24 h,[3],significant increase
same,total bile acid concentration in plasma and livers,[3],not affected
same,βMCA and CDCA in the stool,[3],significant (P < 0.05) increase
same,insulinemia,[4]; HFD study,no effect
same,postprandial glucose concentrations in IPGTT or IPITT,[4]; HFD study,did not significantly decrease
same,plasma glucose levels,[4]; both studies,no effect
same,"pER6-luc luciferase gene reporter assay (Fig1 m), replicates",[5]; Rif 1μM + MI-883 30μM,0.18 and 0.17 and 0.185
same,"pER6-luc luciferase gene reporter assay (Fig1 m), replicates",[5]; SR12813 1μM + MI-883 30μM,0.21 and 0.22 and 0.19
same,"pER6-luc luciferase gene reporter assay (Fig1 m), replicates",[5]; single agent 10μM,0.17 and 0.18
same,"pER6-luc luciferase gene reporter assay (Fig1 m), replicates",[5]; single agent 30μM,0.21 and 0.19
same,"NRs assays: LXRbeta (relative to ctrl, replicates)",[6],0.51 and 0.81 and 0.55
same,"TG accumulation in male livers, enzymatic assay",[7],no significant impact
